Experimental data from US10745346B2, “Agonists of protein tyrosine phosphatase SHP-1” (priority 2015, dated 2020).

What was measured:
[1] = molecular target: Recombinant SHP-1 protein (Homo sapiens, UniProt P29350); assay: SHP-1 phosphatase activity assay (RediPlate 96 EnzChek Tyrosine Phosphatase Assay kit); type: biochemical; conditions: SC derivatives at 1 μM for 2 hr; recombinant SHP-1 25 ng; control DMSO = 100; mean±SD (N=3)
Description: Effects of SC Derivatives on Phosphatase Activity in Recombinant SHP-1 RediPlate 96 EnzChek Tyrosine Phosphatase Assay kit (R-22067) was used for SHP-1 activity assay (Molecular Probes). Recombinant SHP-1 protein (25 ng) was reacted with SC derivatives at 1 μM for 2 hr. Then the SHP-1 phosphatase activity assay was performed according to the user's manual and the absorbance was measured at 465 nm. The control group was DMSO, which functioned as the solvent of the SC derivatives. The values were expressed by mean±SD (N=3).

[2] = tested on: PLC5 cells (a hepatocellular carcinoma cell line); assay: Cytotoxicity, MTT cell viability assay; type: cell-based; conditions: 72 h exposure
Description: PLC5 cells (a hepatocellular carcinoma cell line) were seeded at 5×10^3 cells per well in 96-well plates. Then, cells were exposed to SC derivatives at the indicated doses for 72 h. After that, cells were incubated with MTT (1 mg/ml) (Sigma-Aldrich, St. Louis, Mo.) for 2 h at 37° C. Cell viability was then assessed by measuring the absorbance at 570 nm using a microplate reader.

Sequence of Recombinant SHP-1 protein (P29350 whole entry): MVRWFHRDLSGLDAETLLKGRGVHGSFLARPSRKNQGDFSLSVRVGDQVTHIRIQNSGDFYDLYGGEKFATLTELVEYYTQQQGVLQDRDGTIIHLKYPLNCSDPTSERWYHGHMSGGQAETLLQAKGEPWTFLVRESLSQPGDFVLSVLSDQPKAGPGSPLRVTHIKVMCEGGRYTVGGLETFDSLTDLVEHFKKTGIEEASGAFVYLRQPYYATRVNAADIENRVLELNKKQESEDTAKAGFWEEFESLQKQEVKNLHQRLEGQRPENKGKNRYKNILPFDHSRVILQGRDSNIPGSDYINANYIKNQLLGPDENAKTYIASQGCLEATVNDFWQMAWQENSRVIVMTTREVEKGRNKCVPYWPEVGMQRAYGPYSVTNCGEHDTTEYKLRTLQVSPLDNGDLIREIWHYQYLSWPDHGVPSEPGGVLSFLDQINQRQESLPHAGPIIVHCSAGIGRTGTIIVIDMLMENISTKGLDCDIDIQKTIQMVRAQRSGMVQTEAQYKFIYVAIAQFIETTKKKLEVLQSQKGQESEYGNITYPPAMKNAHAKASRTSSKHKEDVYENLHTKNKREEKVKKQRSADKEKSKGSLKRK

Row | Structure (SMILES) | SHP-1 Activity (% of control) [1] | IC50 [2] [nM]
1 | Cc1ccc(NC(=O)Nc2ccc(C)c(Oc3ccc(/C(N)=N/O)cc3)c2)cc1Oc1ccc(/C(N)=N/O)cc1 [compound 94, (1Z,1′Z)-4,4′-(((carbonylbis(azanediyl))bis(2-methyl-5,1-phenylene))bis(oxy))bis(N′-hydroxybenzimidamide)] | 114.65 ± 13.55 % of control | > 10000
2 | N#Cc1ccc(Oc2ccc(NC(=O)Nc3ccc(Cl)c(C(F)(F)F)c3)c(F)c2)cc1 [compound 96, 1-(4-chloro-3-(trifluoromethyl)phenyl)-3-(4-(4-cyanophenoxy)-2-fluorophenyl)urea] | 194.52 ± 17.89 % of control | 410
3 | N#Cc1ccc(Oc2ccc(F)c(NC(=O)Nc3cc(Oc4ccc(C#N)cc4)ccc3F)c2)cc1 [compound 97, 1,3-bis(5-(4-cyanophenoxy)-2-fluorophenyl)urea] | 127.01 ± 9.02 % of control | > 10000
4 | Cc1cc(Oc2cc(NC(=O)Nc3ccc(C)c(Oc4ccc(C#N)c(C)c4)c3)ccc2C)ccc1C#N [compound 98, 1,3-bis(3-(4-cyano-3-methylphenoxy)-4-methylphenyl)urea] | 88.80 ± 14.30 % of control | 140
5 | Cc1ccc(NC(=O)Nc2ccc(C)c(Oc3ccc(C#N)nc3)c2)cc1Oc1ccc(C#N)cc1 [compound 99, 1-(3-(4-cyanophenoxy)-4-methylphenyl)-3-(3-((6-cyanopyridin-3-yl)oxy)-4-methylphenyl)urea] | 99.86 ± 3.65 % of control | 180
6 | Cc1ccc(NC(=O)Nc2ccc(C)c(Oc3ccc(C#N)c(Cl)c3)c2)cc1Oc1ccc(C#N)cc1 [compound 100, 1-(3-(3-chloro-4-cyanophenoxy)-4-methylphenyl)-3-(3-(4-cyanophenoxy)-4-methylphenyl)urea] | 94.38 ± 11.11 % of control | 110
7 | Cc1cc(Oc2cc(NC(=O)Nc3ccc(C)c(Oc4ccc(C#N)nc4)c3)ccc2C)ccc1C#N [compound 102, 1-(3-(4-cyano-3-methylphenoxy)-4-methylphenyl)-3-(3-((6-cyanopyridin-3-yl)oxy)-4-methylphenyl)urea] | 140.46 ± 12.56 % of control | 160
8 | Cc1ccc(NC(=O)Nc2ccc(C)c(Oc3ccc(C#N)c(Cl)c3)c2)cc1Oc1ccc(C#N)nc1 [compound 103, 1-(3-(3-chloro-4-cyanophenoxy)-4-methylphenyl)-3-(3-((6-cyanopyridin-3-yl)oxy)51-4-methylphenyl)urea] | 123.75 ± 32.58 % of control | 190
9 | Cc1ccc(NC(=O)Nc2ccc(C)c(Oc3cnc(C#N)c(F)c3)c2)cc1Oc1cnc(C#N)c(F)c1 [compound 104, 1,3-bis(3-((6-cyano-5-fluoropyridin-3-yl)oxy)-4-methylphenyl)urea] | 139.74 ± 4.92 % of control | > 10000
10 | N#Cc1ccc(Oc2ccc(F)c(NC(=O)Nc3ccc(Cl)c(C(F)(F)F)c3)c2)cc1 [compound 105, 1-(4-chloro-3-(trifluoromethyl)phenyl)-3-(5-(4-cyanophenoxy)-2-fluorophenyl)urea] | 424.63 ± 10.66 % of control | 470
11 | N#Cc1ccc(Oc2ccc(NC(=O)Nc3ccc(Oc4ccc(C#N)cc4)cc3F)c(F)c2)cc1 [compound 106, 1,3-bis(4-(4-cyanophenoxy)-2-fluorophenyl)urea] | 147.13 ± 8.51 % of control | > 10000
12 | Cc1ccc(NC(=O)Nc2cccc3ccc(Oc4ccc(C#N)cc4)cc23)cc1Oc1ccc(C#N)cc1 [compound 107, 1-(3-(4-cyanophenoxy)-4-methylphenyl)-3-(7-(4-cyanophenoxy)naphthalen-1-yl)urea] | 149.03 ± 14.47 % of control | > 10000
13 | N#Cc1ccc(Oc2ccc(NC(=O)Nc3ccc(Cl)c(C(F)(F)F)c3)c(F)c2)cc1Cl [compound 108, 1-(4-chloro-3-(trifluoromethyl)phenyl)-3-(4-(3-chloro-4-cyanophenoxy)-2-fluorophenyl)urea] | 133.11 ± 12.03 % of control | > 10000
14 | N#Cc1ccc(Oc2ccc3cccc(NC(=O)Nc4ccc(Cl)c(C(F)(F)F)c4)c3c2)cc1Cl [compound 109, 1-(4-chloro-3-(trifluoromethyl)phenyl)-3-(7-(3-chloro-4-cyanophenoxy)naphthalen-1-yl)urea] | 143.61 ± 5.36 % of control | 2070
15 | Cc1ccc(NC(=O)Nc2cc(Oc3ccc(C#N)cc3)ccc2F)cc1Oc1ccc(C#N)nc1 [compound 110, 1-(5-(4-cyanophenoxy)-2-fluorophenyl)-3-(3-((6-cyanopyridin-3-yl)oxy)-4-methylphenyl)urea] | 146.29 ± 12.80 % of control | 7650
16 | N#Cc1ccc(Oc2cc(NC(=O)Nc3ccc(Cl)c(C(F)(F)F)c3)ccc2F)cc1 [compound 111, 1-(4-chloro-3-(trifluoromethyl)phenyl)-3-(3-(4-cyanophenoxy)-4-fluorophenyl)urea] | 156.55 ± 5.99 % of control | 240
17 | N#Cc1ccc(Oc2cc(NC(=O)Nc3ccc(F)c(Oc4ccc(C#N)cc4)c3)ccc2F)cc1 [compound 112, 1,3-bis(3-(4-cyanophenoxy)-4-fluorophenyl)urea] | 146.18 ± 14.74 % of control | 490
18 | Cc1ccc(NC(=O)Nc2ccc(C)c(Oc3ccc(C#N)c4ccccc34)c2)cc1Oc1ccc(C#N)c2ccccc12 [compound 113, 1,3-bis(3-((4-cyanonaphthalen-1-yl)oxy)-4-methylphenyl)urea] | 153.49 ± 13.55 % of control | > 10000
19 | Cc1ccc(NC(=O)Nc2ccc(Cl)c(C(F)(F)F)c2)cc1Oc1ccc(C#N)c2ccccc12 [compound 114, 1-(4-chloro-3-(trifluoromethyl)phenyl)-3-(3-((4-cyanonaphthalen-1-yl)oxy)-4-methylphenyl)urea] | 156.85 ± 6.04 % of control | 760
20 | Cc1ccc(NC(=O)Nc2cc(C(F)(F)F)cc(C(F)(F)F)c2)cc1Oc1ccc(C#N)cc1 [compound 131, 1-(3,5-bis(trifluoromethyl)phenyl)-3-(3-(4-cyanophenoxy)-4-methylphenyl) urea] | 327.86 ± 34.79 % of control | 230
21 | Cc1ccc(NC(=O)Nc2ccc(F)c(C(F)(F)F)c2)cc1Oc1ccc(C#N)cc1 [compound 132, 1-(3-(4-cyanophenoxy)-4-methylphenyl)-3-(4-fluoro-3-(trifluoromethyl)phenyl)urea] | 151.59 ± 9.68 % of control | 640
22 | Cc1ccc(NC(=O)Nc2ccc(Cl)c(C(F)(F)F)c2)cc1Oc1ccc(C#N)cc1 [compound 133, 1-(4-chloro-3-(trifluoromethyl)phenyl)-3-(3-(4-cyanophenoxy)-4-methylphenyl)urea] | 253.18 ± 26.17 % of control | 440
23 | Cc1ccc(NC(=O)Nc2cccc(C(F)(F)F)c2)cc1Oc1ccc(C#N)cc1 [compound 134, 1-(3-(4-cyanophenoxy)-4-methylphenyl)-3-(3-(trifluoromethyl)phenyl)urea] | 152.29 ± 7.92 % of control | 740
